Tested on: MV-4-11 cells
Test: Gene expression microarray analysis (Affymetrix PrimeView) and GSEA
Format: cell-based, human
Design: RFU PODN (11730768_x_at) / Fold change /veh PODN (11730768_x_at) / RFU LINC00158 (11744669_a_at) / Fold change /veh LINC00158 (11744669_a_at) / RFU DUSP10 (11751237_a_at) / Fold change /veh DUSP10 (11751237_a_at) / RFU ID3 (11757404_x_at) / Fold change /veh ID3 (11757404_x_at) / RFU PLEKHG5 (11737974_s_at) / Fold change /veh PLEKHG5 (11737974_s_at) / RFU LRRC4B (11730491_at) / Fold change /veh LRRC4B (11730491_at) / RFU GIMAP4 (11747438_a_at) / Fold change /veh GIMAP4 (11747438_a_at) / RFU KRT8 (11758183_x_at) / Fold change /veh KRT8 (11758183_x_at) / RFU CNN1 (11734310_a_at) / Fold change /veh CNN1 (11734310_a_at) / RFU VPS37D (11726825_at) / Fold change /veh VPS37D (11726825_at) / RFU C10orf10 (11716522_x_at) / Fold change /veh C10orf10 (11716522_x_at) / RFU KIR2DL2 /// KIR2DL4 /// KIR2DL5A /// KIR2DL5B /// KIR2DS1 /// KIR2DS2 /// KIR2DS3 /// KIR2DS4 /// KIR3DL3 /// KIR3DL3 /// KIR3DS1 (11738374_at) / Fold change /veh KIR2DL2 /// KIR2DL4 /// KIR2DL5A /// KIR2DL5B /// KIR2DS1 /// KIR2DS2 /// KIR2DS3 /// KIR2DS4 /// KIR3DL3 /// KIR3DL3 /// KIR3DS1 (11738374_at) / RFU C1QL1 (11718748_at) / Fold change /veh C1QL1 (11718748_at) / RFU TMPRSS4 (11747572_a_at) / Fold change /veh TMPRSS4 (11747572_a_at) / RFU HAMP (11756126_x_at) / Fold change /veh HAMP (11756126_x_at) / RFU RNFT2 (11725882_a_at) / Fold change /veh RNFT2 (11725882_a_at) / RFU NR4A2 (11747474_a_at) / Fold change /veh NR4A2 (11747474_a_at) / RFU ABCC12 (11746883_a_at) / Fold change /veh ABCC12 (11746883_a_at) / RFU TMEM136 (11760407_x_at) / Fold change /veh TMEM136 (11760407_x_at) / RFU CLDN22 /// WWC2 (11732394_at) / Fold change /veh CLDN22 /// WWC2 (11732394_at) / RFU HLA-DPB1 (11760878_x_at) / Fold change /veh HLA-DPB1 (11760878_x_at) / RFU SPINT1 (11716480_a_at) / Fold change /veh SPINT1 (11716480_a_at) / RFU GAP43 (11754022_s_at) / Fold change /veh GAP43 (11754022_s_at) / RFU A4GNT (11735810_at) / Fold change /veh A4GNT (11735810_at) / RFU PRB3 (11715151_x_at) / Fold change /veh PRB3 (11715151_x_at) / RFU TUBB4B (11761932_at) / Fold change /veh TUBB4B (11761932_at) / RFU CAPN14 (11732068_a_at) / Fold change /veh CAPN14 (11732068_a_at) / RFU TMCC2 (11721928_a_at) / Fold change /veh TMCC2 (11721928_a_at) / RFU IRGQ (11745062_a_at) / Fold change /veh IRGQ (11745062_a_at) / RFU FAM174B (11720279_a_at) / Fold change /veh FAM174B (11720279_a_at) / RFU TMPRSS4 (11748680_a_at) / Fold change /veh TMPRSS4 (11748680_a_at) / RFU FAM212B (11763350_a_at) / Fold change /veh FAM212B (11763350_a_at) / RFU PLEKHG5 (11743358_a_at) / Fold change /veh PLEKHG5 (11743358_a_at) / RFU ZSCAN30 (11745921_a_at) / Fold change /veh ZSCAN30 (11745921_a_at) / RFU CMKLR1 (11741424_a_at) / Fold change /veh CMKLR1 (11741424_a_at) / RFU LOC101060620 /// MAPK8IP1 (11723275_at) / Fold change /veh LOC101060620 /// MAPK8IP1 (11723275_at) / RFU SPTSSB (11747773_x_at) / Fold change /veh SPTSSB (11747773_x_at) / RFU PRSS12 (11739890_at) / Fold change /veh PRSS12 (11739890_at) / RFU BIN1 (11741810_x_at) / Fold change /veh BIN1 (11741810_x_at) / RFU WNT11 (11732464_a_at) / Fold change /veh WNT11 (11732464_a_at) / RFU C10orf10 (11716521_a_at) / Fold change /veh C10orf10 (11716521_a_at) / RFU C5orf56 (11738089_at) / Fold change /veh C5orf56 (11738089_at) / RFU CYB561 (11721691_x_at) / Fold change /veh CYB561 (11721691_x_at) / RFU ANKRD19P (11752326_a_at) / Fold change /veh ANKRD19P (11752326_a_at) / RFU OR2T12 /// OR2T33 /// OR2T8 (11738714_s_at) / Fold change /veh OR2T12 /// OR2T33 /// OR2T8 (11738714_s_at) / RFU VCAN (11748164_a_at) / Fold change /veh VCAN (11748164_a_at) / RFU JSRP1 (11732532_at) / Fold change /veh JSRP1 (11732532_at) / RFU KRTAP10-11 (11738290_x_at) / Fold change /veh KRTAP10-11 (11738290_x_at) / RFU MYO3A (11730013_a_at) / Fold change /veh MYO3A (11730013_a_at) / RFU EBF3 (11725865_a_at) / Fold change /veh EBF3 (11725865_a_at) / RFU CAMK2N1 (11719241_x_at) / Fold change /veh CAMK2N1 (11719241_x_at) / RFU C5orf56 (11738088_a_at) / Fold change /veh C5orf56 (11738088_a_at) / RFU OLFML3 (11715873_a_at) / Fold change /veh OLFML3 (11715873_a_at) / RFU LOC100653217 /// NTM (11731650_a_at) / Fold change /veh LOC100653217 /// NTM (11731650_a_at) / RFU MAPK11 (11762145_a_at) / Fold change /veh MAPK11 (11762145_a_at) / RFU FIZ1 (11724087_x_at) / Fold change /veh FIZ1 (11724087_x_at) / RFU OASL (11726364_x_at) / Fold change /veh OASL (11726364_x_at) / RFU SOX15 (11748057_x_at) / Fold change /veh SOX15 (11748057_x_at) / RFU CD79A (11719716_a_at) / Fold change /veh CD79A (11719716_a_at) / RFU HIST1H1D (11736915_at) / Fold change /veh HIST1H1D (11736915_at) / RFU CASKIN2 (11723855_a_at) / Fold change /veh CASKIN2 (11723855_a_at) / RFU LOC730098 (11760151_x_at) / Fold change /veh LOC730098 (11760151_x_at) / RFU OR4N2 (11742367_at) / Fold change /veh OR4N2 (11742367_at) / RFU PRRT2 (11749266_a_at) / Fold change /veh PRRT2 (11749266_a_at) / RFU SNX32 (11753110_a_at) / Fold change /veh SNX32 (11753110_a_at) / RFU CDHR5 (11726645_a_at) / Fold change /veh CDHR5 (11726645_a_at) / RFU RCAN1 (11760418_a_at) / Fold change /veh RCAN1 (11760418_a_at) / RFU FAM167A (11723789_a_at) / Fold change /veh FAM167A (11723789_a_at) / RFU FAM26E (11764081_at) / Fold change /veh FAM26E (11764081_at) / RFU ISYNA1 (11749810_s_at) / Fold change /veh ISYNA1 (11749810_s_at) / RFU ACY1 (11761880_at) / Fold change /veh ACY1 (11761880_at) / RFU 11764098_at / Fold change /veh 11764098_at / RFU SAMD14 (11745864_x_at) / Fold change /veh SAMD14 (11745864_x_at) / RFU NPB (11741838_a_at) / Fold change /veh NPB (11741838_a_at) / RFU TMPRSS6 (11731388_a_at) / Fold change /veh TMPRSS6 (11731388_a_at) / RFU KRTAP10-2 (11738614_at) / Fold change /veh KRTAP10-2 (11738614_at) / RFU ARHGAP8 /// PRR5-ARHGAP8 (11727945_x_at) / Fold change /veh ARHGAP8 /// PRR5-ARHGAP8 (11727945_x_at) / RFU KRTAP5-7 /// NADSYN1 (11734609_at) / Fold change /veh KRTAP5-7 /// NADSYN1 (11734609_at) / RFU RASL12 (11751679_a_at) / Fold change /veh RASL12 (11751679_a_at) / RFU CDKN2B (11736163_a_at) / Fold change /veh CDKN2B (11736163_a_at) / RFU PRF1 (11729649_at) / Fold change /veh PRF1 (11729649_at) / RFU, ZNF638 /// ZNF638-IT1 / Fold change vs veh, ZNF638 /// ZNF638-IT1 / RFU, PANK3 / Fold change vs veh, PANK3 / RFU, SH3YL1 / Fold change vs veh, SH3YL1 / RFU, ZEB2 / Fold change vs veh, ZEB2 / RFU, NRIP1 / Fold change vs veh, NRIP1 / RFU, PTTG1IP / Fold change vs veh, PTTG1IP / RFU, CAPN2 / Fold change vs veh, CAPN2 / RFU, MED14 / Fold change vs veh, MED14 / RFU, SNORA58 / Fold change vs veh, SNORA58 / RFU, C1orf63 / Fold change vs veh, C1orf63 / RFU, LRRFIP1 / Fold change vs veh, LRRFIP1 / RFU, NDUFAF7 / Fold change vs veh, NDUFAF7 / RFU, SLC12A2 / Fold change vs veh, SLC12A2 / RFU, IBTK / Fold change vs veh, IBTK / RFU, ESF1 / Fold change vs veh, ESF1 / Fold change vs veh, TMEM50B / RFU, TAOK1 / Fold change vs veh, TAOK1 / RFU, ACBD3 / Fold change vs veh, ACBD3 / RFU, TMA16 / Fold change vs veh, TMA16 / RFU, RWDD3 / Fold change vs veh, RWDD3 / RFU, BCAT1 / Fold change vs veh, BCAT1 / RFU, EDEM3 / Fold change vs veh, EDEM3 / RFU, TMEM33 / Fold change vs veh, TMEM33 / RFU, WDR75 / Fold change vs veh, WDR75 / RFU, AHCTF1 / Fold change vs veh, AHCTF1 / RFU, TFRC / Fold change vs veh, TFRC / RFU, ZDHHC17 / Fold change vs veh, ZDHHC17 / RFU, NOM1 / Fold change vs veh, NOM1 / RFU, ARL8B / Fold change vs veh, ARL8B / RFU, ZBTB11 / Fold change vs veh, ZBTB11 / RFU, TAMM41 / Fold change vs veh, TAMM41 / RFU, KIAA1704 /// LOC100996395 / Fold change vs veh, KIAA1704 /// LOC100996395 / RFU, ING1 / Fold change vs veh, ING1 / RFU, TRMT61B / Fold change vs veh, TRMT61B / RFU, FUBP3 / Fold change vs veh, FUBP3 / RFU, TP53 / Fold change vs veh, TP53 / RFU, TNKS2 / Fold change vs veh, TNKS2 / RFU, ZFP14 / Fold change vs veh, ZFP14 / RFU, ACTR2 / Fold change vs veh, ACTR2 / RFU, PPP3R1 / Fold change vs veh, PPP3R1 / RFU, PIK3R1 / Fold change vs veh, PIK3R1 / RFU, HNRNPA1 / Fold change vs veh, HNRNPA1 / RFU, RNF170 / Fold change vs veh, RNF170 / RFU, ZNF28 / Fold change vs veh, ZNF28 / RFU, RNGTT / Fold change vs veh, RNGTT / RFU, OGT / Fold change vs veh, OGT / RFU, BRD1 / Fold change vs veh, BRD1 / RFU, MARS / Fold change vs veh, MARS / RFU, ZNF655 / Fold change vs veh, ZNF655 / RFU, FAHD1 / Fold change vs veh, FAHD1 / RFU, BDP1 / Fold change vs veh, BDP1 / RFU, LRRCC1 / Fold change vs veh, LRRCC1 / RFU, ARID1A / Fold change vs veh, ARID1A / RFU, ZNF146 / Fold change vs veh, ZNF146 / RFU, ZNF330 / Fold change vs veh, ZNF330 / RFU, GPN3 / Fold change vs veh, GPN3 / RFU, C9orf123 / Fold change vs veh, C9orf123 / RFU, N4BP2L2 / Fold change vs veh, N4BP2L2 / RFU, ARFIP1 / Fold change vs veh, ARFIP1 / RFU, FAM179B / Fold change vs veh, FAM179B / RFU, BCL10 / Fold change vs veh, BCL10 / RFU, UHRF1BP1L / Fold change vs veh, UHRF1BP1L / RFU, BET1 / Fold change vs veh, BET1 / RFU, CNOT2 / Fold change vs veh, CNOT2 / RFU, ZNF268 / Fold change vs veh, ZNF268 / Fold change vs veh, ZNF507 / RFU, DGCR2 / Fold change vs veh, DGCR2 / RFU, WDSUB1 / Fold change vs veh, WDSUB1 / Fold change vs veh, HSP90B1 /// MIR3652 / RFU, ADSS / Fold change vs veh, ADSS / RFU, GK / Fold change vs veh, GK / RFU, ZNF148 / Fold change vs veh, ZNF148 / RFU, TAF9 / Fold change vs veh, TAF9 / RFU, SLC1A5 / Fold change vs veh, SLC1A5 / RFU, SLMO2 / Fold change vs veh, SLMO2 / RFU, ABCC4 / Fold change vs veh, ABCC4 / RFU, LOC101060439 /// RAP1B / Fold change vs veh, LOC101060439 /// RAP1B / RFU, RFX7 / Fold change vs veh, RFX7 / RFU, GTPBP10 / Fold change vs veh, GTPBP10 / RFU, CNEP1R1 / Fold change vs veh, CNEP1R1 / RFU, BIVM-ERCC5 /// ERCC5 / Fold change vs veh, BIVM-ERCC5 /// ERCC5 / RFU, ILF3 / Fold change vs veh, ILF3 / RFU 11762660_at / Fold change /veh 11762660_at / RFU VCAN (11757783_s_at) / Fold change /veh VCAN (11757783_s_at) / RFU DDX43 (11728927_at) / Fold change /veh DDX43 (11728927_at) / RFU KRT8 (11758188_x_at) / Fold change /veh KRT8 (11758188_x_at) / RFU NKD1 (11759106_at) / Fold change /veh NKD1 (11759106_at) / RFU SRD5A1 (11742802_a_at) / Fold change /veh SRD5A1 (11742802_a_at) / RFU TPSAB1 /// TPSB2 (11721975_s_at) / Fold change /veh TPSAB1 /// TPSB2 (11721975_s_at) / RFU GSTM3 (11746129_a_at) / Fold change /veh GSTM3 (11746129_a_at) / RFU IL23R (11737362_x_at) / Fold change /veh IL23R (11737362_x_at) / RFU TMEM51 (11727254_a_at) / Fold change /veh TMEM51 (11727254_a_at) / RFU PIWIL2 (11732686_x_at) / Fold change /veh PIWIL2 (11732686_x_at) / RFU ORM1 (11744905_x_at) / Fold change /veh ORM1 (11744905_x_at) / RFU CCDC152 (11743942_at) / Fold change /veh CCDC152 (11743942_at) / RFU ECM1 (11717891_a_at) / Fold change /veh ECM1 (11717891_a_at) / RFU IL23R (11748794_a_at) / Fold change /veh IL23R (11748794_a_at) / RFU TNFAIP8L3 (11732012_x_at) / Fold change /veh TNFAIP8L3 (11732012_x_at) / RFU MBOAT4 (11741988_at) / Fold change /veh MBOAT4 (11741988_at) / RFU 11764193_at / Fold change /veh 11764193_at / RFU TMEM53 (11763286_at) / Fold change /veh TMEM53 (11763286_at) / RFU MAGEB2 (11727129_at) / Fold change /veh MAGEB2 (11727129_at) / RFU TMEM200A (11744735_a_at) / Fold change /veh TMEM200A (11744735_a_at) / RFU CCDC152 (11751479_a_at) / Fold change /veh CCDC152 (11751479_a_at) / RFU FAM211A (11726209_a_at) / Fold change /veh FAM211A (11726209_a_at) / RFU RGS16 (11746705_a_at) / Fold change /veh RGS16 (11746705_a_at) / RFU VCAN (11755009_s_at) / Fold change /veh VCAN (11755009_s_at) / RFU RHOB (11743442_s_at) / Fold change /veh RHOB (11743442_s_at) / RFU RGS16 (11720943_a_at) / Fold change /veh RGS16 (11720943_a_at) / RFU RGS16 (11720944_at) / Fold change /veh RGS16 (11720944_at) / RFU, VPS4B / Fold change vs veh, VPS4B / RFU, CREB1 / Fold change vs veh, CREB1 / RFU, DNAJC13 / Fold change vs veh, DNAJC13 / RFU, GNAQ / Fold change vs veh, GNAQ / RFU, CDK5R1 / Fold change vs veh, CDK5R1 / RFU, ZRANB3 / Fold change vs veh, ZRANB3 / RFU, CUL4A / Fold change vs veh, CUL4A / RFU, CCNY / Fold change vs veh, CCNY / RFU, UFL1 / Fold change vs veh, UFL1 / RFU, COG3 / Fold change vs veh, COG3 / RFU, DIAPH2 / Fold change vs veh, DIAPH2 / RFU, SKA2 / Fold change vs veh, SKA2 / RFU, AFF3 / Fold change vs veh, AFF3 / RFU, LMF1 / Fold change vs veh, LMF1 / RFU, IPO11 / Fold change vs veh, IPO11 / RFU, DFFB / Fold change vs veh, DFFB / RFU, FOXP1 / Fold change vs veh, FOXP1 / RFU, CARD8 / Fold change vs veh, CARD8 / RFU, STRN3 / Fold change vs veh, STRN3 / RFU, ADK / Fold change vs veh, ADK / RFU, RASSF2 / Fold change vs veh, RASSF2 / RFU, WIPF1 / Fold change vs veh, WIPF1 / RFU, LARP1B / Fold change vs veh, LARP1B / RFU, RASA1 / Fold change vs veh, RASA1 / RFU, RB1 / Fold change vs veh, RB1 / RFU, PPFIA1 / Fold change vs veh, PPFIA1 / RFU, MAT2A / Fold change vs veh, MAT2A / RFU, CCT5 / Fold change vs veh, CCT5 / RFU, WDR92 / Fold change vs veh, WDR92 / RFU, CUX1 / Fold change vs veh, CUX1 / RFU, TTC7A / Fold change vs veh, TTC7A / RFU, TMEM135 / Fold change vs veh, TMEM135 / RFU, DEPTOR / Fold change vs veh, DEPTOR / RFU, CPM / Fold change vs veh, CPM / RFU, DNAJB6 / Fold change vs veh, DNAJB6 / RFU, CACNA2D3 / Fold change vs veh, CACNA2D3 / RFU, DTX4 / Fold change vs veh, DTX4 / RFU, TFCP2 / Fold change vs veh, TFCP2 / RFU, GMCL1 /// GMCL1P1 / Fold change vs veh, GMCL1 /// GMCL1P1 / RFU, AEBP2 / Fold change vs veh, AEBP2 / RFU, SNHG1 /// SNORD22 /// SNORD25 /// SNORD26 /// SNORD27 /// SNORD28 /// SNORD29 /// SNORD31 / Fold change vs veh, SNHG1 /// SNORD22 /// SNORD25 /// SNORD26 /// SNORD27 /// SNORD28 /// SNORD29 /// SNORD31 / Fold change (Aza/veh), C12orf56 (ProbeSet 11735607_a_at) / Fold change (ACY-1035/veh), C12orf56 (ProbeSet 11735607_a_at) / Fold change (Aza/veh), FGFR1OP (ProbeSet 11751329_s_at) / Fold change (ACY-1035/veh), FGFR1OP (ProbeSet 11751329_s_at) / Fold change (Aza/veh), VPS36 (ProbeSet 11739960_a_at) / Fold change (ACY-1035/veh), VPS36 (ProbeSet 11739960_a_at) / RFU SYPL1 (11715823_x_at) / Fold change /veh SYPL1 (11715823_x_at) / RFU IGFBP7 (11715501_s_at) / Fold change /veh IGFBP7 (11715501_s_at) / RFU REEP3 (11722064_at) / Fold change /veh REEP3 (11722064_at) / RFU IGLL1 (11728026_x_at) / Fold change /veh IGLL1 (11728026_x_at): dose or concentration left out as unconfirmed
Conditions: MV-4-11 cells, 48 hours

Q: Nc1ccc(-c2cccs2)cc1NC(=O)c1ccc2c(c1)cc(C1CC1)n2CCN1CCOCC1 [ACY-1035] was tested. Which “RFU DUSP10 (11751237_a_at)” value did it give?
A: 30.58 RFU
